Experiments:
HT-29 cells = experiment: MTT cell viability assay; type: cell-based, Human; details: for viability at 30 µg/mL: Homo sapiens, HT-29, 24 h, read-out: cell viability; for inhibition of cell viability (in words): HT-29, 30 μg/ml, MTT
Method: (§1) Human CRC cell lines, HT-29 and SW620 cells were grown in RPMI (Invitrogen) containing 10% heat-inactivated foetal bovine serum, 100 µg/ml streptomycin, 100 units/ml penicillin and 2 mmol/l L-glutamine.
(§2) Cell viability was determined using the 3-(4, 5-dimethylthiazolyl-2)–2, 5-diphenyltetrazolium bromide) MTT assay according to Mosmann[40]. 5-Fluorouracil (5-FU) was used as positive control. Briefly, after culturing cells in 96 well plates for 24 h, they were treated with different compounds (30 μg/ml) for 24 h. Freshly prepared MTT (5 mM) solutions were added to the cells and were further incubated for 2 h at 37 °C in 5% CO2. One hundred microliters of dimethyl sulphoxide (DMSO) was added in each well to dissolve the formazan crystal, formed in the reaction during incubation by careful pipetting. The absorbance of the product was measured at 540 nm using a microplate reader. The experiments were performed in triplicate for each condition. The graph illustrates the mean and standard deviation (SD) values of three independent experiments.

SW620 cells = experiment: MTT cell viability assay; type: cell-based, Human; details: for viability at 30 µg/mL: Homo sapiens, SW-620, 24 h, read-out: cell viability; for inhibition of cell viability (in words): SW620, 30 μg/ml, MTT
Method: as §1, §2

[1] = molecular target: T1, human group IIA (hG-IIA) sPLA2 (Homo sapiens, UniProt P14555); experiment: In vitro antiphospholipase activity; type: biochemical
T1 sequence (P14555 21-144): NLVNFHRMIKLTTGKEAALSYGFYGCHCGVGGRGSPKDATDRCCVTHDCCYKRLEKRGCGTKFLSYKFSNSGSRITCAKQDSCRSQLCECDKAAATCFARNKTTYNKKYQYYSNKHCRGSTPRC

[2] = molecular target: T2, human group V (hG-V) sPLA2 (Homo sapiens, UniProt P39877); experiment: In vitro antiphospholipase activity; type: biochemical; details: 20 min preincubation, lecithin substrate, pH 7.6; read-out: mean IC50 against hG-V (converted)
T2 sequence (P39877 21-138): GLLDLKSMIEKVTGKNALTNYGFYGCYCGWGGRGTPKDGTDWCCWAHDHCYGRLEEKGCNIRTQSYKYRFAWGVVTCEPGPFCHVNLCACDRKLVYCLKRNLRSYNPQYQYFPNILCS

[3] = molecular target: T3, human group X (hG-X) sPLA2 (Homo sapiens, UniProt O15496); experiment: In vitro antiphospholipase activity; type: biochemical; details: 20 min preincubation, lecithin substrate, pH 7.6; read-out: mean IC50 against hG-X (converted)
T3 sequence (O15496 43-165): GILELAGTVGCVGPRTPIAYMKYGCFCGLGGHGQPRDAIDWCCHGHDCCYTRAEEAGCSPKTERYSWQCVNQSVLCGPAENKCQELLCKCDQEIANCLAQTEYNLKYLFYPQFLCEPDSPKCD

[4] = molecular target: Naja mossambica mossambica sPLA2 (NmPLA2); experiment: In vitro antiphospholipase activity; type: biochemical; details: 20 min preincubation, lecithin substrate, pH 7.6
[5] = molecular target: Apis mellifera bee venom (AmPLA2) (Apis mellifera, UniProt P00630); experiment: biochemical
cathepsin-B = cathepsin-B (Homo sapiens, UniProt P07858); experiment: In vitro antiprotease activity; type: biochemical; details: 15 min preincubation; read-out: mean IC50 against Cathepsin-B (converted)
Method: (§3) The inhibitory effects of 21 3H-quinazolin-4-one derivatives on several available therapeutically important proteases such as cathepsin-B, collagenase, elastase, thrombin, and trypsin were investigated. […] The protease inhibitory activity was expressed as inhibition percentage, which was determined by comparison with a control experiment. The results were expressed as IC50 values that were determined from the standard curve. A protease inhibitor cocktail (Sigma) was used as the positive control.

collagenase = experiment: In vitro antiprotease activity; type: biochemical; details: 15 min preincubation
Method: as §3

elastase = experiment: In vitro antiprotease activity; type: biochemical; details: 15 min preincubation
Method: as §3

thrombin = thrombin (Homo sapiens, UniProt P00734); experiment: In vitro antiprotease activity; type: biochemical; details: 15 min preincubation; read-out: mean IC50 against Thrombin (converted)
Method: as §3

trypsin = molecular target: T4, trypsin (Bos taurus, UniProt P00760); experiment: In vitro antiprotease activity; type: biochemical; details: 15 min preincubation; read-out: mean IC50 against Trypsin (converted)
T4 construct: gene PRSS1
T4 sequence (P00760 24-246): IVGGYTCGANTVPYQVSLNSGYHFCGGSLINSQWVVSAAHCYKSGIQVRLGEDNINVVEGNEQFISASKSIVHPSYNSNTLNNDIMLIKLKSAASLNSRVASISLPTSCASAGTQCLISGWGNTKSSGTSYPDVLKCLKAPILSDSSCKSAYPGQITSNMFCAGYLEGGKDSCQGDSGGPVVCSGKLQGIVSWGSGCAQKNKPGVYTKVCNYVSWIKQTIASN
Method: as §3

xanthine oxidase = xanthine oxidase (Homo sapiens, UniProt P47989); experiment: In vitro inhibition of xanthine oxidase; type: biochemical
Sequence of xanthine oxidase (P47989 whole entry, species assumed): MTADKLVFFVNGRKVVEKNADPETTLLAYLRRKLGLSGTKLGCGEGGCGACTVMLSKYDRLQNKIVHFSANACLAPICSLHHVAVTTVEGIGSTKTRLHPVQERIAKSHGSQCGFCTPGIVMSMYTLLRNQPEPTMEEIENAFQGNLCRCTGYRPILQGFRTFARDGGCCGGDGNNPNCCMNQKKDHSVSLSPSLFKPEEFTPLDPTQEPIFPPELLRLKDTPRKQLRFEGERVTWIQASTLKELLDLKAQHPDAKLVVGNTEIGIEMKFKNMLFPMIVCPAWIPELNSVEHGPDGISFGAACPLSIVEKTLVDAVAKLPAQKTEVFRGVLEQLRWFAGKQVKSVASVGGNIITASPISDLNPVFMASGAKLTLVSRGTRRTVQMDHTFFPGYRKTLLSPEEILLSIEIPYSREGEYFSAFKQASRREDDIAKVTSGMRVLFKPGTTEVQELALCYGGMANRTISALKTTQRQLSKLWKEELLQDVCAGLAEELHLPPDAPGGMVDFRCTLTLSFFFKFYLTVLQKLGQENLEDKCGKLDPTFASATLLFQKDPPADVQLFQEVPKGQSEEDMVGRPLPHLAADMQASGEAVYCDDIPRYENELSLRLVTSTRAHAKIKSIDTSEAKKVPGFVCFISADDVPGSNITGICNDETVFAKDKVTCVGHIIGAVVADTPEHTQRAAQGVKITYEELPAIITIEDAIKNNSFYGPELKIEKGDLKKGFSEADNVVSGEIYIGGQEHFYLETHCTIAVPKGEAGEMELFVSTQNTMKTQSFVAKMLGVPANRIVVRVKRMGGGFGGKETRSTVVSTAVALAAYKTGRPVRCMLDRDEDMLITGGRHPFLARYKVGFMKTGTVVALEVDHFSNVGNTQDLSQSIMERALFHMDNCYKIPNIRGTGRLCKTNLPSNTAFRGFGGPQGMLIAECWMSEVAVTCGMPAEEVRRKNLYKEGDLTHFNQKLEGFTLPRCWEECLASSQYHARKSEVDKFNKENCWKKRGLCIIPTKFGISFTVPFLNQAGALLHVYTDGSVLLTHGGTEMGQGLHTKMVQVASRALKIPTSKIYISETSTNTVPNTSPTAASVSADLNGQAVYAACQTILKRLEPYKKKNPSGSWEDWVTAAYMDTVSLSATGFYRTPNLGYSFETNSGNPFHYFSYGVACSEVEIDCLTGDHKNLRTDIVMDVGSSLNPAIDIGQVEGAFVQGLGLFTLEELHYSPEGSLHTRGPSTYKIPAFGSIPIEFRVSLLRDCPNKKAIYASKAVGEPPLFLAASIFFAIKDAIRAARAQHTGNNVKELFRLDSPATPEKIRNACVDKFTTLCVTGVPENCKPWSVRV
Method: The xanthine oxidase inhibitory activities of the examined chemical compounds were determined by following the formation of uric acid from xanthine according to the reported method by Bondet and co-workers[46]. […] The results were expressed as IC50 determined from the curve.

Sequence of Apis mellifera bee venom (AmPLA2) (P00630 34-167 limits assumed): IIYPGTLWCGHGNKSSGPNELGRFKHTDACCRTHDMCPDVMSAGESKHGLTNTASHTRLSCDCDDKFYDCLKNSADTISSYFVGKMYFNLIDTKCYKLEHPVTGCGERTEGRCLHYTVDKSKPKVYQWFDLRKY

| SMILES | viability at 30 µg/mL (HT-29 cells) | viability at 30 µg/mL (SW620 cells) | IC50 [1] | IC50 [2] | IC50 [3] | mean IC50 against NmPLA2 [4] | IC50 [5] | IC50 (cathepsin-B) | mean IC50 against Collagenase (collagenase) | mean IC50 against Elastase (elastase) | IC50 (thrombin) | IC50 (trypsin) | IC50 (xanthine oxidase) | melting point | inhibition of cell viability (in words) (HT-29 cells) | inhibition of cell viability (in words) (SW620 cells) |
| --- | --- | --- | --- | --- | --- | --- | --- | --- | --- | --- | --- | --- | --- | --- | --- | --- |
| O=c1[nH]cc(F)c(=O)[nH]1 [Compound 5-FU, 5-Fluorouracil, reference compound] | 65.9% | 42.7% |  |  |  |  |  |  |  |  |  |  |  |  |  |  |
| COc1cc(-n2c(C)nc3ccc(F)cc3c2=O)cc(OC)c1OC [Compound 5b, 6 -Fluoro-2-methyl-3–(3,4,5-trimethoxy-phenyl)-3H-quinazolin-4-one] |  | 46.6% | 60.3 µM | 36.3 µM | 24.7 µM | 4.15 ± 0.50 µg/mL | 14.8 µM | 31.9 µM | 18.00 ± 1.41 µg/mL | 0.70 ± 0.01 µg/mL | 2.61 µM | 3.19 µM | 15.7 µM | 193 to 195 °C |  |  |
| Cc1nc2ccccc2c(=O)n1/N=C/c1ccc2ccccc2c1 [Compound 8a, (E)-2-Methyl-3-[(naphthalen-2-ylmethylene)-amino]-3H-quinazolin-4-one] |  |  | 145 µM | 121 µM | 90.9 µM | 36.75 ± 2.48 µg/mL | 98.9 µM | 116 µM | 31.00 ± 1.41 µg/mL | 32.50 ± 2.12 µg/mL | 109 µM | 110 µM | 137 µM |  | potently capable of inhibiting cell viability | potently capable of inhibiting cell viability |
| COc1cccc(/C=N/n2c(C)nc3ccc(Br)cc3c2=O)c1[N+](=O)[O-] [Compound 8f, (E)-6-Bromo-3-[(3-methoxy-2-nitro-benzylidene)-amino]-2-methyl-3H-quinazolin-4-one] |  |  | 44.6 µM | 37.7 µM | 43.1 µM | 6.00 ± 0.71 µg/mL | 10.1 µM | 45.5 µM | 15.50 ± 2.12 µg/mL | 30.50 ± 2.12 µg/mL | 59.9 µM | 74.3 µM | 7.19 µM | 234 to 235 °C | potently capable of inhibiting cell viability | potently capable of inhibiting cell viability |
| Cc1nc2ccc(Br)cc2c(=O)n1/N=C/c1ccc(-c2ccccc2)cc1 [Compound 8j, (E)-3-[(Biphenyl-4-ylmethylene)-amino]-6-bromo-2-methyl-3H-quinazolin-4-one] |  |  | 20.2 µM | 14.9 µM | 22.6 µM | 16.40 ± 0.85 µg/mL | 45.4 µM | 3.35 µM | 14.00 ± 1.41 µg/mL | 9.00 ± 0.41 µg/mL | 29.9 µM | 22.7 µM | 49 µM | 208 to 210 °C | potently capable of inhibiting cell viability | potently capable of inhibiting cell viability |
| O=c1c2ccccc2nc(SCc2ccc(Cl)cc2)n1-c1ccccc1 [Compound 15a] |  |  | 22.7 µM | 27.7 µM | 17.8 µM | 5.40 ± 0.57 µg/mL | 17.2 µM | 48.8 µM | 28.00 ± 1.41 µg/mL | 11.50 ± 2.12 µg/mL | 35.6 µM | 31.7 µM | 31.7 µM |  | potently capable of inhibiting cell viability | potently capable of inhibiting cell viability |
| Cc1ccc2nc(SCc3ccc(Cl)cc3)n(-c3ccccc3)c(=O)c2c1 [Compound 15b, 2-(4-Chloro-benzylsulfanyl)-6-methyl-3-phenyl-3H-quinazolin-4-one] |  |  | 66.2 µM | 46.8 µM | 34.4 µM | 14.85 ± 0.50 µg/mL | 34.6 µM | 34.4 µM | 26.50 ± 2.12 µg/mL | 0.65 ± 0.02 µg/mL | 2.55 µM | 1.27 µM | 49.6 µM | 164 to 165 °C | potently capable of inhibiting cell viability | potently capable of inhibiting cell viability |
| Cc1cccc(C)c1NC(=O)CSc1nc2ccccc2c(=O)n1-c1ccccc1 [Compound 15c, N-(2,6-Dimethyl-phenyl)-2-(4-oxo-3-phenyl-3,4-dihydro-quinazolin-2-ylsulfanyl)-acetamide] | 47.5% |  | 96.3 µM | 56.6 µM | 102 µM | 28.50 ± 2.12 µg/mL | 52.9 µM | 26.5 µM | 18.00 ± 1.41 µg/mL | 18.50 ± 0.71 µg/mL | 42.1 µM | 37.3 µM | 148 µM | 218 to 220 °C |  |  |
